Twelve compounds from US7960393B2, “Pyrimidine derivatives useful for the treatment of diseases mediated by CRTH2” (Actimis Pharmaceuticals, Inc., priority 2002, dated 2011) can be followed below.

For orientation: melting point means the temperature of the solid-liquid transition. One may read the Kd as a measure of binding affinity in units of concentration. A higher Kd goes with a looser complex.

Read-outs that look alike come from different tables or passages of the source.

In series [1] the target is T1, human CRTH2 (Homo sapiens, UniProt Q9Y5Y4).
T1 construct: expressed in transfected cells; host or cells: L1.2 cells, pEAK expression vector, puromycin-selected
T1 sequence (Q9Y5Y4 1-395): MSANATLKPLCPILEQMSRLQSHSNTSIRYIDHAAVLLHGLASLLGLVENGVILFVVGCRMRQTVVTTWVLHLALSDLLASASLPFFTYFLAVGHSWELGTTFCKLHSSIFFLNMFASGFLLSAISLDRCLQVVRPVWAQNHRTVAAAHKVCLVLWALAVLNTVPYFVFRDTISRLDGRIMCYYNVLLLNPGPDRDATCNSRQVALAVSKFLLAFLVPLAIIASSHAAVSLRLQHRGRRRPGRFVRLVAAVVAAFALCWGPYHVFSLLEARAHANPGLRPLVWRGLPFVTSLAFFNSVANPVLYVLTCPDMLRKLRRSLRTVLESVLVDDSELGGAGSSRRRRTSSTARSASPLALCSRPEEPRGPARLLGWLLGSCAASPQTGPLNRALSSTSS
The series is described as follows: Measurement of Ca2+ mobilization in the human CRTH2-transfected L1.2 cell line (Assay 1). The format is cell-based. A digest of the protocol: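 Human CRTH2 was stably expressed in L1.2 cells (puromycin-selected) loaded with Fluo-3AM (1 μM final) for 60 min at room temperature. Buffer was 20 mM HEPES pH 7.6, 0.1% BSA, 1 mM probenecid in Hanks'. Cells (2×10^5/well) got compound for 5 min at RT, with fluorescence at 480 nm. IC50 bins: A ≤10 nM, B ≤100 nM, C ≤500 nM, D above; samples were solid-phase products of about 40–90% purity.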
On the technique in general: A change in cytosolic calcium serves as a functional read-out for many receptors and channels.

In series [2] the target is T1, human CRTH2. In words: Human CRTH2 receptor binding assay (Assay 2). Particulars: binding to puromycin-resistant human CRTH2 L1.2 transfectants. Here is the method: Human CRTH2 cDNA was amplified from human eosinophil cDNA with gene specific primers containing restriction sites for cloning into pEAK vector (Edge Bio Systems). The human CRTH2 cDNA was cloned into the mammalian expression vector pEAK. This expression plasmid (40 μg) was transfected into L1.2 cells, at a cell density of 1×10^7 cells/500 μl, by using electroporation apparatus (Gene Pulser II, BioRad) at 250V/1,000 μF. One day after the transfection, puromycin (1 μg/ml, Sigma) was added into the cell culture plates. Two weeks after the transfection, grown cells were picked up for further growth.
[Human CRTH2 Receptor Binding Assay] (Assay 2)
CRTH2 transfectants were washed once with PBS and resuspended in binding buffer (50 mM Tris-HCl, pH7.4, 40 mM MgCl2, 0.1% BSA, 0.1% NaN3). 100 μl of cell suspension (2×10^5 cells), [^3H]-labeled PGD2, and various concentrations of test compound were then mixed in a 96-well U-bottom polypropylene plate and incubated for […] at room temperature to allow binding to occur. […] Scintillant was added to the filtration plate, and radioactivity remaining on the filter was measured by TopCount (Packard), a scintillation counter. Non-specific binding was determined by incubating the cell suspension and [^3H]-labeled PGD2 in the presence of 1 μM of unlabeled PGD2.

Where [3] appears, read: PGD2-induced Ca2+ mobilization in CRTH2-transfected L1.2 cells, compounds as yielded by solid phase synthesis, purity about 40 to 90%, read-out: Activity class.

As to `CCc1nc(Cc2ccc(NC(=O)c3ccc4ccccc4c3)cc2)nc(N(C)C)c1CC(=O)O` [Example 8-8], the melting point was 148 to 150 °C. Also, the IC50 on human CRTH2 [1] (setting [3]) is less than 10 nM. The like results for `CCc1nc(Cc2ccc(NC(=O)c3ccc(C(F)(F)F)cc3)cc2)nc(N(C)C)c1CC(=O)O` [Example 8-9] were, in that order, 153 to 155 °C and less than 10 nM.

`CC(C)c1nc(Cc2ccc(NC(=O)c3ccc4ccccc4c3)cc2)nc(N(C)C)c1CC(=O)O` [Example 8-10] returned a melting point of 158 to 160 °C. Further, the IC50 at human CRTH2 [1] (setting [3]) is 10 to 100 nM. The like results for `CC(C)c1nc(Cc2ccc(NC(=O)c3ccc(C(F)(F)F)cc3)cc2)nc(N(C)C)c1CC(=O)O` [Example 8-11] were, in that order, 145 to 148 °C and 10 to 100 nM. `CN(C)c1nc(Cc2ccc(NC(=O)OCc3ccccc3)cc2)ncc1CC(=O)O` [Example 9-1, [2-(4-{[(Benzyloxy)carbonyl]amino}benzyl)-4-(dimethylamino)pyrimidin-5-yl]acetic acid] yielded a melting point of 101 to 104 °C. Also, on human CRTH2 [1] (setting [3]), the IC50 fell in the range of 10 to 100 nM. Consider `CN(C)c1nc(Cc2ccc(NC(=O)OCc3ccc(F)cc3)cc2)ncc1CC(=O)O` [Example 9-2, {4-(dimethylamino)-2-[4-({[(4-fluorobenzyl)oxy]carbonyl}amino)benzyl]pyrimidin-5-yl}acetic acid], for which the melting point lay in the range of 95 to 97 °C. Besides, the IC50 on human CRTH2 [1] is less than 10 nM. Turning to `CN(C)c1nc(Cc2ccc(NC(=O)OCc3ccccc3)cc2)nc(Cl)c1CC(=O)O` [Example 9-3], the melting point fell in the range of 88 to 91 °C. The IC50 on human CRTH2 [1] (setting [3]) is less than 10 nM. On the same counts, the results for `COCc1nc(Cc2ccc(NC(=O)OCc3ccccc3)cc2)nc(N(C)C)c1CC(=O)O` [Example 9-5] are 88 to 90 °C and more than 500 nM. The like results for `CCc1nc(Cc2ccc(NC(=O)OCc3ccccc3)cc2)nc(N(C)C)c1CC(=O)O` [Example 9-6] were, in that order, 120 to 123 °C and more than 500 nM.

`CN(C)c1nc(Cc2ccc(NC(=O)OCc3ccccc3)cc2)nc(N(C)C)c1CC(=O)O` [Example 9-7] displayed a melting point of 100 °C. Moreover, on human CRTH2 [1] (setting [3]), the IC50 is less than 10 nM. On the same counts, the results for `CN(C)c1nc(Cc2ccc(NC(=O)OCc3ccc(C(F)(F)F)cc3)cc2)ncc1CC(=O)O` [Example 9-8] are 91 to 93 °C and less than 10 nM. For the compound `CCCCC[C@H](O)/C=C/[C@H]1C(=O)C[C@H](O)[C@@H]1C/C=C\CCCC(=O)O` [[^3H]-labeled PGD2], on human CRTH2 [2], the Kd turned out to be 6.3 nM.
